Measurements taken from patent US20040102423A1, “Spironolactone and angiotensin II antagonist combination therapy for treatment of congestive heart failure” (G.D. Searle & Co., priority 1995, published 2004).

Experiments:
myocardial fibrosis = conditions: animal models; cited from earlier work
[1] = biological target: angiotensin II AT1 receptor; experiment: Assay A: Angiotensin II binding activity, rat uterine membrane preparation, 125I-AII displacement
rabbit aortic rings = experiment: Assay B: In vitro vascular smooth muscle response for AII (antagonist activity, pA2); format: cell-based; conditions: Oryctolagus cuniculus, two values in a cell = two determinations
How it was run: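 Endothelium-denuded thoracic aortic rings from male New Zealand white rabbits, in oxygenated Krebs at 37° C. under ~1 g tension, gave isometric AII contraction curves (3×10^−10 to 1×10^−5 M).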

pressor response to AII = experiment: Assay C: In vivo intragastric pressor assay response for AII antagonists; set-up: species or system Sprague-Dawley rats; conditions: in vivo pressor response, 3 mg/kg intragastrically; for inhibition in vivo at 3 mg/kg: Rattus norvegicus, po

In the case of CC(=O)S[C@@H]1CC2=CC(=O)CC[C@]2(C)[C@H]2CC[C@@]3(C)[C@@H](CC[C@@]34CCC(=O)O4)[C@H]12 [spironolactone, 17-hydroxy-7α-mercapto-3-oxo-17α-pregn-4-ene-21-carboxylic acid γ-lactone acetate], the “prevention of myocardial fibrosis” value (myocardial fibrosis) is given as “prevents myocardial fibrosis”.

In the case of CCCCc1nc(-c2ccccc2C(C)C)n(Cc2ccc(-c3ccccc3-c3nnn[nH]3)nc2)n1 [Compound 275], the IC50 [1] is reported as 6.3 nM, the Kb (rabbit aortic rings) is reported as 0.851 nM and the inhibition in vivo at 3 mg/kg (pressor response to AII) is reported as 40%. The “Assay C Duration” value (pressor response to AII) was >180 min.

CCCCCc1cn(CCCC)c(=O)n1Cc1ccc(-c2ccccc2-c2nnn[nH]2)nc1 [Compound 201] showed an IC50 [1] of 17 nM, a Kb (rabbit aortic rings) of 1.66 nM and an inhibition in vivo at 3 mg/kg (pressor response to AII) of 10%. For the same compound, the “Assay C Duration” value (pressor response to AII) was 180 min.

CCCCc1nc(Cl)c(Cl)n1Cc1ccc(-n2cccc2C(=O)O)cc1 [Compound 158] showed an IC50 [1] of 54 nM, a Kb (rabbit aortic rings) of 5.89 nM and an inhibition in vivo at 3 mg/kg (pressor response to AII) of 30%. The “Assay C Duration” value (pressor response to AII) was >180 min.

Compound CCCCc1cn(-c2ccccc2CC)c(=O)n1Cc1ccc(-c2ccccc2-c2nnn[nH]2)nc1 [Compound 239] has an IC50 [1] of 6.8 nM, a Kb (rabbit aortic rings) of 13.2 nM and an inhibition in vivo at 3 mg/kg (pressor response to AII) of 20%. For the same compound, the “Assay C Duration” value (pressor response to AII) was >180 min.

Work on CCCn1nc(C(OC)OC)nc1Cc1ccc(-c2ccccc2-c2nnn[nH]2)nc1 [Compound 185] yielded an IC50 [1] of 6.5 nM, a Kb (rabbit aortic rings) of 1.51 nM and an inhibition in vivo at 3 mg/kg (pressor response to AII) of 50%. The “Assay C Duration” value (pressor response to AII) was >180 min.
